# Results: patent publication US9187397B2 (STC.UNM, priority 2004, dated 2015)
# “Also recorded” adds a separate entry of the source. Like-named read-outs stand apart in the source and are kept apart here.
# How the values were obtained:
# NF-κB = NF-κB luciferase reporter cellular assay (293T/NF-κB-luc, TNFα-stimulated); format: cell-based, human; settings: for inhibition of the activation of NF-κB by TNFα (screen): 10 μM, compared with curcumin; for IC50: Homo sapiens, HEK-293T
# Experimental: The cell line is derived from human 293T embryonic kidney cells expressing the large T antigen containing a chromosomal integration of a luciferase reporter construct regulated by 6 copies of the NF-κB response element (Panomics, Inc.). This stable clonal cell line is obtained by co-transfection of pNF-κB-luc and pTK-hyg containing plasmids followed by the addition of hygromycin (200 μg/ml) to maintain cell selection.
# The cell line was grown in a humidified atmosphere at 37° C. in 5% CO2/95% air and maintained in Dulbecco's Modified Eagle's Medium (DMEM-high glucose containing 4 mM glutamine) containing fetal bovine serum (FBS, 10%), sodium pyruvate (1 mM), penicillin (100 units/ml), streptomycin (100 μg/ml) and hygromycin (100 μg/m) to maintain cell selection (Gibco/Invitrogen).
# The 293T/NF-κB-luc cells were re-plated 24 hr prior to treatment, into 24-well cell culture plates in media without hygromycin, to prevent it from interfering with the assay. The cells were then allowed to grow and attach, to the wells, for 24 hr in a humidified atmosphere at 37° C. in 5% CO2/95% air. […] The cells then were placed again in a humidified atmosphere at 37° C. in 5% CO2/95% air for 7 hr. Plate wells were gently washed with PBS, pH 7.4, and lysed with passive lysis buffer (1×, 100 μl, Promega). The subsequent chemiluminescent lysates were analyzed with the Luciferase Assay System (Promega) utilizing a TD-20/20 luminometer. The relative light units (photons) were determined by the addition of firefly luciferase substrate (75 μl) to cell lysate (10 μl). The light units were then normalized to the amount of protein in the well (mg/ml) with BCA™ Protein Assay Kit (Pierce) and standardized to percent of control (TNFα).
# This assay utilized a commercially available cell line (Panomics 293T-luc cellular assay) developed for screening inhibitors of NF-κB. This cell line is stably transfected with a luciferase reporter controlled by an NF-κB dependent promoter. The cell is stimulated with tumor necrosis factor alpha (TNFα) which activates NF-κB. NF-κB then binds to one of six promoter regions on the cell's DNA leading to the production of a luciferase enzyme. Luciferin is added to the cell lysates and the luciferase enzyme catalyzes a cleavage of luciferin leading to the emission of light.
# This cell line was developed by Panomics for screening potential inhibitors of NF-κB. Cells are stimulated with TNF-α to express luciferase, whose activity is monitored in a chemiluminometer.
# An NF-κB reporter stable cell line from human 293T embryonic kidney cells (293T/NFκB-luc) (Panomics) was grown in a humidified atmosphere at 37° C. in 5% CO2/95% air. The cells were maintained in Dulbecco's Modified Eagle's Medium (DMEM—high glucose containing 4 mM glutamine) supplemented with 10% fetal bovine serum (FBS), 1 mM sodium pyruvate, 100 units/ml penicillin, 100 μg/m streptomycin and 100 μg/ml hygromycin (Gibco/Invitrogen, Carlsbad, Calif.)) to maintain cell selection. One day prior to treatment, the 293T/NFκB-luc cells were plated into 24-well cell culture plates (Costar) at approximately 70% confluency in the above media without hygromycin. The following day cells were fed fresh media 1 hour prior to treatment. […] The cells were placed again in a humidified atmosphere at 37° C. in 5% CO2/95% air for 7 hours. Plate wells were gently washed with phosphate buffered saline, pH 7.4, and lysed with 1× passive lysis buffer (Promega). The subsequent lysates were analyzed with the Luciferase Assay System (Promega) utilizing a TD-20/20 luminometer (Turner Designs). The firefly luciferase relative light units were normalized to protein (mg/ml) with BCATM Protein Assay Kit (Pierce) and standardized to TNF-α control.
# AP-1 = AP-1 luciferase reporter cellular assay (293/AP1-luc, PMA-stimulated); format: cell-based, human; settings: for activity in the AP-1 cellular assay (screen): 15 μM, compared with curcumin; for IC50: Homo sapiens
# Experimental: This cell line is obtained by co-transfection of pAP1-luc and pTK-hyg containing plasmids followed by the addition of hygromycin (200 μg/ml) to maintain cell selection.
# After 24 hr, the cells had reached approximately 60% confluency. […] Plate wells were gently washed with PBS, pH 7.4, and lysed with passive lysis buffer (1×, 100 μl, Promega). The subsequent chemiluminescent lysates were analyzed with the Luciferase Assay System (Promega) utilizing a TD-20/20 luminometer. The relative light units (photons) were determined by the addition of firefly luciferase substrate (75 μl) to cell lysate (10 μl). The light units were then normalized to the amount of protein in the well (mg/ml) with BCA™ Protein Assay Kit (Pierce) and standardized to percent of control (PMA).
# This cell line is stably transfected with a luciferase reporter controlled by an AP-1 dependent promoter. The cell is stimulated with phorbol ester which activates AP-1. AP-1 then binds to one of three promoter regions on the cells DNA leading to the production of a luciferase enzyme. Luciferin is added to the cell lysates and the luciferase enzyme catalyzes a cleavage of luciferin leading to the emission of light.
# [1] = Total Radical-trapping Anti-oxidant Parameter assay (TRAP assay); set-up: key to TRAP: active as an antioxidant (+); settings: for activity in the TRAP assay: compared with curcumin; for TRAP: antioxidant activity
# Experimental: This assay is also known as the Total radical-trapping anti-oxidant parameter assay (TRAP assay). For the TRAP assay (Re et al., Free Rad. Biol. […] The turquoise colored reaction was allowed to stabilize for 5 min and the absorbance monitored on a Perkin Elmer UV/Vis Lambda 2S. […] The following FIGS. 2A-2C) show the analogs active in the TRAP assay.
# [2] = Ferric Reducing/Anti-oxidant Power assay (FRAP assay); set-up: key to FRAP: active as an antioxidant (+); settings: for activity in the FRAP assay: compared with curcumin; for FRAP: antioxidant activity
# Experimental: Anti-oxidant activity was also measured in the Ferric reducing/anti-oxidant power assay (FRAP assay) in which the analogs are reacted with a ferric tripyridyltriazine complex. For the FRAP assay (Benzie et al., Meth. Enzymol. 1999, 299, 15-27), the ferric complex was prepared at room temperature by reaction of ferric chloride (16.7 mM) and 2,4,6-tripyridyl-s-triazine (8.33 mM) in acetate buffer (0.25 M) to pH 3.6. The FRAP reagent was used immediately after preparation. […] The reaction was mixed by vortexing, allowed to stabilize for 5 min and the absorbance recorded on a Perkin Elmer UV/Vis Lambda 2S. […] The synthetic analog of α-tocopherol (vitamin E), Trolox, was used as a reference standard (10 μM in ethanol).
# The second assay used, the FRAP assay, determines the analogs abilities to reduce a Fe(III) tripyridyltriazine complex to a Fe(II) tripyridyltriazine complex. The following FIGS. 3A-3C) show analogs active in the FRAP assay.
# [3] = inhibition of TNFα-induced NF-κB activation, Table 10, read-out: NF-κB IC50
# [4] = inhibition of TNF-α-induced NF-κB activation, Panomics 293T/NFκB-luc, second Table 12, read-out: IC50
# [5] = inhibition of TNFα-induced NF-κB activation, 293T/NF-κB-luc cells, Table 5, read-out: IC50
# [6] = inhibition of PMA-induced AP-1 activation, 293/AP1-luc cells, Table 10, read-out: AP-1 IC50
compound,measurement,setting,value
COc1cc(/C=C/C(=O)/C=C/c2cc(OC)cc(OC)c2)cc(OC)c1 [20o],inhibition of the activation of NF-κB by TNFα (screen),NF-κB,more active than curcumin
same,activity in the AP-1 cellular assay (screen),AP-1,more active than curcumin
COc1cc(CCC(=O)C(Cc2ccccc2)=C(O)CCc2ccc(O)c(OC)c2)ccc1O [15a],activity in the TRAP assay,[1]; 10 μM in ethanol,more active than curcumin
O=C(C1OC1c1ccccc1)C1OC1c1ccccc1 (stereo not shown) [42b],inhibition of the activation of NF-κB by TNFα (screen),NF-κB,activity comparable to curcumin
O=C(/C=C/c1ccccc1C(F)(F)F)/C=C/c1ccccc1C(F)(F)F [20w],inhibition of the activation of NF-κB by TNFα (screen),NF-κB,more active than curcumin
same,activity in the AP-1 cellular assay (screen),AP-1,more active than curcumin
COc1cc(CCC(=O)C(C)=C(O)CCc2ccc(O)c(OC)c2)ccc1O [14a],activity in the TRAP assay,[1]; 10 μM in ethanol,more active than curcumin
same,inhibition of the activation of NF-κB by TNFα (screen),NF-κB,more active than curcumin
COc1cc(/C=C/C(C)=O)ccc1O [35a],activity in the FRAP assay,[2]; 10 μM in ethanol,active
same,inhibition of the activation of NF-κB by TNFα (screen),NF-κB,more active than curcumin
COc1cc(/C=C/C(=O)/C=C(O)/C=C/c2ccc(O)c(OC)c2)ccc1O [3a],TRAP,[1]; Table 10,+
same,FRAP,[2]; Table 10,+
same,IC50,NF-κB; [3],8.2 µM
COc1cc(/C=C2\CCC/C(=C\c3ccc(O)c(OC)c3)C2=O)ccc1O [38a],TRAP,"[1]; 10 μM in ethanol, Table 5",+
same,TRAP,[1]; Table 10,+
same,FRAP,"[2]; 10 μM in ethanol, Table 5",+
same,FRAP,[2]; Table 10,+
same,activity in the AP-1 cellular assay (screen),AP-1,more active than curcumin
same,IC50,"AP-1; AP1, read-out: AP-1 IC50 (μM)",7.3 µM
COc1cc(/C=C/C(=O)/C(C)=C(O)/C=C/c2ccc(O)c(OC)c2)ccc1O [Compound 2],IC50,NF-κB; [4],6.7 ± 1.2 µM
O=C(/C=C/c1cccnc1)/C=C/c1cccnc1 [Compound 3],IC50,NF-κB; [4],3.4 ± 0.2 µM
COc1cccc(OC)c1/C=C/C(=O)/C=C/c1c(OC)cccc1OC [20l],activity in the AP-1 cellular assay (screen),AP-1,more active than curcumin
COc1cc(/C=C/C(=O)/C=C/c2ccc(O)c(OC)c2)ccc1O [20a],inhibition of the activation of NF-κB by TNFα (screen),NF-κB,more active than curcumin
O=C(/C=C/c1cccc(C(F)(F)F)c1)/C=C/c1cccc(C(F)(F)F)c1 [20v],inhibition of the activation of NF-κB by TNFα (screen),NF-κB,more active than curcumin
O=C(/C=C/c1ccc(O)c(O)c1)/C=C/c1ccc(O)c(O)c1 [20af],activity in the TRAP assay,[1]; 10 μM in ethanol,more active than curcumin
same,activity in the FRAP assay,[2]; 10 μM in ethanol,more active than curcumin
O=C(/C=C/c1ccccc1C(F)(F)F)/C=C/c1ccccc1C(F)(F)F [Compound 5],IC50,NF-κB; [4],5 ± 0.3 µM
COc1cc(/C=C/C(=O)c2ccc(O)c(OC)c2)ccc1O [45a],activity in the TRAP assay,[1]; 10 μM in ethanol,more active than curcumin
same,activity in the FRAP assay,[2]; 10 μM in ethanol,active
same,inhibition of the activation of NF-κB by TNFα (screen),NF-κB,more active than curcumin
same,activity in the AP-1 cellular assay (screen),AP-1,most active
COc1cc(/C=C/C(=O)/C(Cc2ccccc2)=C(O)/C=C/c2ccc(O)c(OC)c2)ccc1O [9a],TRAP,"[1]; 10 μM in ethanol, Table 5",+
same,TRAP,[1]; Table 10,+
same,FRAP,"[2]; 10 μM in ethanol, Table 5",+
same,FRAP,[2]; Table 10,+
same,inhibition of the activation of NF-κB by TNFα (screen),NF-κB,more active than curcumin
same,IC50,NF-κB; [5],7.6 µM
same,IC50,NF-κB; [3],7.6 µM
same,activity in the AP-1 cellular assay (screen),AP-1,more active than curcumin
same,IC50,AP-1; [6],5.3 µM
COc1ccccc1/C=C/C(=O)/C=C/c1ccccc1OC [20c],activity in the AP-1 cellular assay (screen),AP-1,more active than curcumin
COc1cc(CCC(=O)/C=C(\O)CCc2ccc(O)c(OC)c2)ccc1O [13a],activity in the TRAP assay,[1]; 10 μM in ethanol,more active than curcumin
same,activity in the FRAP assay,[2]; 10 μM in ethanol,potent antioxidant activity
COc1ccc(OC)c(/C=C/C(=O)/C=C/c2cc(OC)ccc2OC)c1 [20m],inhibition of the activation of NF-κB by TNFα (screen),NF-κB,more active than curcumin
same,IC50,NF-κB; [5],6.4 µM
same,IC50,NF-κB; [3],6.4 µM
same,activity in the AP-1 cellular assay (screen),AP-1,more active than curcumin
same,IC50,AP-1; [6],1.4 µM
N#Cc1ccc(C(=O)/C=C/c2ccccc2)cc1 [46al],activity in the AP-1 cellular assay (screen),AP-1,Active
COc1cccc(/C=C/C(=O)/C=C/c2cccc(OC)c2OC)c1OC [20d],activity in the AP-1 cellular assay (screen),AP-1,more active than curcumin
O=C(O)c1ccc(C(=O)/C=C/c2ccccc2)cc1 [46ad],activity in the FRAP assay,[2]; 10 μM in ethanol,active
same,activity in the AP-1 cellular assay (screen),AP-1,Active
O=C(/C=C/c1ccccc1O)/C=C/c1ccccc1O [20q],activity in the TRAP assay,[1]; 10 μM in ethanol,more active than curcumin
same,TRAP,"[1]; 10 μM in ethanol, Table 5",+
same,TRAP,[1]; Table 10,+
same,inhibition of the activation of NF-κB by TNFα (screen),NF-κB,more active than curcumin
same,activity in the AP-1 cellular assay (screen),AP-1,more active than curcumin
same,IC50,AP-1; [6],11.7 µM
COc1cc(/C=C/C(=O)c2ccccc2)ccc1O [48a],activity in the FRAP assay,[2]; 10 μM in ethanol,active
same,activity in the AP-1 cellular assay (screen),AP-1,most active
COc1ccc(/C=C/C(=O)/C=C(O)/C=C/c2ccc(OC)c(O)c2)cc1O [3h],activity in the TRAP assay,[1]; 10 μM in ethanol,more active than curcumin
COc1cc(/C=C/C(=O)/C=C/c2ccc(OC(C)=O)c(OC)c2)ccc1OC(C)=O [20ag],FRAP,"[2]; 10 μM in ethanol, Table 5",+
same,FRAP,[2]; Table 10,+
same,inhibition of the activation of NF-κB by TNFα (screen),NF-κB,more active than curcumin
same,IC50,NF-κB; [5],5.4 µM
same,IC50,NF-κB; [3],5.4 µM
same,activity in the AP-1 cellular assay (screen),AP-1,more active than curcumin
same,IC50,AP-1; [6],8.3 µM
CN1C(c2ccccc2)CC(=O)CC1c1ccccc1 (stereo not shown) [52b],inhibition of the activation of NF-κB by TNFα (screen),NF-κB,more active than curcumin; also recorded: activity comparable to curcumin
CC(=O)C=Cc1ccccc1O [35q],activity in the AP-1 cellular assay (screen),AP-1,Active
